Results on 14 compounds are retold here after patent US10654884B2 (Vitae Pharmaceuticals, Inc., priority 2014, dated 2020).

In one experiment the target is T1, human CD73 (Homo sapiens, UniProt P21589).
T1 construct: purchased R&D Systems 5795-EN-010
T1 sequence (P21589 27-549): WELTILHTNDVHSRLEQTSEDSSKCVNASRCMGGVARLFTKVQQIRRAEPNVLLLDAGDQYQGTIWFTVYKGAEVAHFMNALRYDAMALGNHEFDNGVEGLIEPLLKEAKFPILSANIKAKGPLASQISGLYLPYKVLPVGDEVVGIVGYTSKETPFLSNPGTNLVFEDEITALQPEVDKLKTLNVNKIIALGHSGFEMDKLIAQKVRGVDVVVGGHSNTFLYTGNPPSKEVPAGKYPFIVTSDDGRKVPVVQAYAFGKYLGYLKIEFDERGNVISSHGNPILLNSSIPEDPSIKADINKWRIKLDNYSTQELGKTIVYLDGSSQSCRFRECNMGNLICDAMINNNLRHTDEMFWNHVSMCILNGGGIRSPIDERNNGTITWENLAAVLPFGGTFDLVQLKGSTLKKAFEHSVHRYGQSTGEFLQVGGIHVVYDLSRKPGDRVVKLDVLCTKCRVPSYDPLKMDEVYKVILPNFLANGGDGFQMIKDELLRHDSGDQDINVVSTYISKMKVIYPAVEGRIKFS
Put plainly: Inhibition of 5′-Nucleotidase Activity of CD73 (Assay 1). Format: biochemical. To be noted: human CD73 4 ng/ml, 50 μM CMP, 20 min at RT, malachite green readout; read-out: Assay 1: IC50, inhibition of 5′-nucleotidase activity of CD73. The procedure, abridged:
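Human CD73 (4 ng/ml final) was incubated with 50 μM CMP in 25 mM Tris-HCl pH 7.4, 0.005% Brij-35 for 20 min at RT. Reactions were stopped with malachite green reagent and absorbance was read at 620 nm. IC50 came from a 4-parameter logistic fit.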

The target of experiment [1] is T2, CD73 on U138 neuroglioma cells (Homo sapiens, UniProt P21589).
T2 construct: U138 neuroglioma cells, which express CD73 on their surface; endogenous in cells; host or cells: U138 neuroglioma cells (ATCC)
T2 sequence (P21589 27-549): T1 sequence (P21589 27-549)
Put plainly: Inhibition of Ecto-5′-Nucleotidase Activity in U138 Neuroglioma Cells (Assay 2). To be noted: 50 μM CMP, 2 hr at 37° C., malachite green readout, read-out: Assay 2: IC50, inhibition of ecto-5′-nucleotidase activity in U138 neuroglioma cells. Format: cell-based. The procedure, abridged: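 Whole-cell CD73 activity in U138 human neuroglioma cells seeded the day before, washed free of phosphate, then given test compound dilutions with 50 μM CMP in HEPES-buffered saline, pH 7.4, DMSO ≤0.1%. Incubated 2 hr at 37° C; released inorganic phosphate in supernatant measured by malachite green; IC50 by nonlinear regression.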

A word on the IC50: it is the concentration that inhibits the measured activity by half. In the case of `Nc1nc(Cl)nc2c1ncn2[C@@H]1O[C@H](COC(Cc2c(F)cccc2F)(C(=O)O)C(=O)O)[C@@H](O)[C@H]1O` [Example 84, 2-(((2R,3S,4R,5R)-5-(6-amino-2-chloro-9H-purin-9-yl)-3,4-dihydroxytetrahydrofuran-2-yl)methoxy)-2-(2,6-difluorobenzyl)malonic acid], the IC50 (at human CD73; in experiment [1]) was < 100 nM in each case.

As to `N#Cc1ccccc1CC(OC[C@H]1O[C@@H](n2cnc3c(N)nc(Cl)nc32)[C@H](O)[C@@H]1O)(C(=O)O)C(=O)O` [Example 85], the 50% inhibitory concentration (IC50) (on human CD73; in experiment [1]) was < 100 nM in each case.

With `CS(=O)(=O)c1ccccc1CC(OC[C@H]1O[C@@H](n2cnc3c(N)nc(Cl)nc32)[C@H](O)[C@@H]1O)(C(=O)O)C(=O)O` [Example 86, 2-(((2R,3S,4R,5R)-5-(6-amino-2-chloro-9H-purin-9-yl)-3,4-dihydroxytetrahydrofuran-2-yl)methoxy)-2-(2-(methylsulfonyl)benzyl)malonic acid], the IC50 at human CD73 was < 100 nM; in experiment [1], 100 to 1000 nM.

`CCOC(=O)C(OC[C@H]1C[C@@H](n2nnc3c(NC[C@@H]4CCOC4)nc(Cl)nc32)[C@H](O)[C@@H]1O)P(=O)(O)O` (stereo partly drawn) [Example 88, (1-(((1R,2R,3S,4R)-4-(5-chloro-7-((((S)-tetrahydrofuran-3-yl)methyl)amino)-3H-[1,2,3]triazolo[4,5-d]pyrimidin-3-yl)-2,3-dihydroxycyclopentyl)methoxy)-2-ethoxy-2-oxoethyl)phosphonic Acid]: the half-inhibitory concentration (IC50) (on human CD73; in experiment [1]) was < 100 nM throughout.

Take `CCOC(=O)C(OC[C@H]1C[C@@H](n2nnc3c(NC[C@H]4CCOC4)nc(Cl)nc32)[C@H](O)[C@@H]1O)P(=O)(O)O` (stereo partly drawn) [Example 89, (1-(((1R,2R,3S,4R)-4-(5-chloro-7-((((R)-tetrahydrofuran-3-yl)methyl)amino)-3H-[1,2,3]triazolo[4,5-d]pyrimidin-3-yl)-2,3-dihydroxycyclopentyl)methoxy)-2-ethoxy-2-oxoethyl)phosphonic Acid]: the IC50 (on human CD73; in experiment [1]) was < 100 nM throughout.

Regarding `CCOC(=O)C(OC[C@H]1C[C@@H](n2nnc3c(N[C@@H]4CCOC4)nc(Cl)nc32)[C@H](O)[C@@H]1O)P(=O)(O)O` (stereo partly drawn) [Example 90, (1-(((1R,2R,3S,4R)-4-(5-chloro-7-(((R)-tetrahydrofuran-3-yl)amino)-3H-[1,2,3]triazolo[4,5-d]pyrimidin-3-yl)-2,3-dihydroxycyclopentyl)methoxy)-2-ethoxy-2-oxoethyl)phosphonic Acid], the IC50 (at human CD73; in experiment [1]) was < 100 nM each time.

With `CCOC(=O)C(OC[C@H]1C[C@@H](n2nnc3c(N[C@H]4CCOC4)nc(Cl)nc32)[C@H](O)[C@@H]1O)P(=O)(O)O` (stereo partly drawn) [Example 91, (1-(((1R,2R,3S,4R)-4-(5-chloro-7-(((S)-tetrahydrofuran-3-yl)amino)-3H-[1,2,3]triazolo[4,5-d]pyrimidin-3-yl)-2,3-dihydroxycyclopentyl)methoxy)-2-ethoxy-2-oxoethyl)phosphonic Acid], the IC50 (on human CD73; in experiment [1]) was < 100 nM in each case.

For the compound `CCOC(=O)C(OC[C@H]1C[C@@H](n2nnc3c(NC4CCCC4)nc(Cl)nc32)[C@H](O)[C@@H]1O)P(=O)(O)O` (stereo partly drawn) [Example 92, (1-(((1R,2R,3S,4R)-4-(5-chloro-7-(cyclopentylamino)-3H-[1,2,3]triazolo[4,5-d]pyrimidin-3-yl)-2,3-dihydroxycyclopentyl)methoxy)-2-ethoxy-2-oxoethyl)phosphonic Acid], the half-maximal inhibitory concentration (IC50) (on human CD73; in experiment [1]) was < 100 nM throughout.

`Nc1nc(Cl)nc2c1ncn2[C@@H]1O[C@H](COC(Cc2ccccn2)(C(=O)O)C(=O)O)[C@@H](O)[C@H]1O` [Example 93, 2-(((2R,3S,4R,5R)-5-(6-amino-2-chloro-9H-purin-9-yl)-3,4-dihydroxytetrahydrofuran-2-yl)methoxy)-2-(pyridin-2-ylmethyl)malonic acid]: the half-inhibitory concentration (IC50) (at human CD73; in experiment [1]) was < 100 nM each time.

Take `Nc1nc(Cl)nc2c1ncn2[C@@H]1O[C@H](COC(Cc2nccs2)(C(=O)O)C(=O)O)[C@@H](O)[C@H]1O` [Example 94, 2-(((2R,3S,4R,5R)-5-(6-amino-2-chloro-9H-purin-9-yl)-3,4-dihydroxytetrahydrofuran-2-yl)methoxy)-2-(thiazol-2-ylmethyl)malonic acid]: the IC50 (at human CD73; in experiment [1]) was < 100 nM each time.

Turning to `Nc1nc(Cl)nc2c1ncn2[C@@H]1O[C@H](COC(Cc2cc(F)cc(F)c2)(C(=O)O)C(=O)O)[C@@H](O)[C@H]1O` [Example 96, 2-(((2R,3S,4R,5R)-5-(6-amino-2-chloro-9H-purin-9-yl)-3,4-dihydroxytetrahydrofuran-2-yl)methoxy)-2-(3,5-difluorobenzyl)malonic acid], the IC50 (on human CD73; in experiment [1]) was < 100 nM each time.

Regarding `O=C(O)C(Cc1ccc(F)cc1)(OC[C@H]1O[C@@H](n2cnc3c(NC4CCCC4)nc(Cl)nc32)[C@H](O)[C@@H]1O)C(=O)O` [Example 97, 2-(((2R,3S,4R,5R)-5-(2-chloro-6-(cyclopentylamino)-9H-purin-9-yl)-3,4-dihydroxytetrahydrofuran-2-yl)methoxy)-2-(4-fluorobenzyl)malonic acid], the half-inhibitory concentration (IC50) (at human CD73; in experiment [1]) was 100 to 1000 nM each time.

Regarding `Nc1nc(Cl)nc2c1ncn2[C@@H]1O[C@H](COC(CC2CC2)(C(=O)O)C(=O)O)[C@@H](O)[C@H]1O` [Example 98, 2-(((2R,3S,4R,5R)-5-(6-amino-2-chloro-9H-purin-9-yl)-3,4-dihydroxytetrahydrofuran-2-yl)methoxy)-2-(cyclopropylmethyl)malonic acid], the concentration for half-maximal inhibition (IC50) (on human CD73; in experiment [1]) was < 100 nM each time.

As to `CCOC(=O)C(SC[C@H]1O[C@@H](n2cnc3c(N)nc(Cl)nc32)[C@H](O)[C@@H]1O)P(=O)(O)O` (stereo partly drawn) [Example 99, (1-((((2S,3S,4R,5R)-5-(6-amino-2-chloro-9H-purin-9-yl)-3,4-dihydroxytetrahydrofuran-2-yl)methyl)thio)-2-ethoxy-2-oxoethyl)phosphonic Acid], the IC50 (on human CD73; in experiment [1]) was 100 to 1000 nM throughout.
